Experimental data reported in BindingDB's records for patent US12202835 (Beijing Scitech-Mq Pharmaceuticals, 2025).

Legend:
Assay in all cases: LANCE TR-FRET Assay
[1] = biological target: Hepatocyte growth factor receptor (Homo sapiens, UniProt P08581)
Experimental: c-MET Kinase: The assay is based on the LANCE TR-FRET technology of Perkin Elmer Inc., and the assay method is as follows:1. Dilution of compounds: a total of 11 concentrations were obtained using a 3-fold gradient dilution from the highest concentration of 2500 nM (the maximum final concentration of the drug used in this assay was 2500 nM, and the minimum final concentration was 0.042 nM).2. 2.5 μL of the gradient-diluted compounds were taken with a transfer pipette to a 384-well plate.3. Addition of enzyme: 5 μL of 2×c-MET kinase solution (with a concentration of 2 nM) was taken with a transfer pipette to the corresponding reaction well of the 384-well plate, mixed well and pre-reacted at room temperature for 5 minutes.4. 2.5 μL 4× Ultra ULight™-JAK-1 (Tyr1023) Peptide (with a concentration of 400 nM)/ATP (with a concentration of 40 μM) mixture was taken with a transfer pipette to the corresponding reaction well of the 384-well plate.5. Negative control: 2.5 μL/well 4× substrate/ATP mixture and 7.5 μL 1× Kinase Assay Buffer were added to the wells of the 384-well plate.6. Positive control: 2.5 μL/well 4× substrate/ATP mixture, 2.5 μL/well 1× Kinase Assay Buffer containing 16% DMSO, and 5 μL/well 2× c-MET kinase solution were added to the 384-well plate. The final concentration of DMSO in the reaction system was 4%.7. The mixture was mixed well and then centrifuged and reacted at room temperature in dark for 60 min.8. Termination of the enzymatic reaction: 5 μL of 4× stop solution was taken with a transfer pipette to the wells of the 384-well plate, mixed and then centrifuged, and reacted at room temperature for 5 min.9. Development of the reaction: 5 μL of 4× detection solution was taken with a transfer pipette to the wells of the 384-well plate for color development, and the mixture was mixed and then centrifuged and reacted at room temperature for 60 min.10. The 384-well plate was placed into the Envision plate reader and the signal was detected using the appropriate program.11. Analysis and processing of the raw data:12. […]

[2] = biological target: T1, Tyrosine-protein kinase Mer (Homo sapiens, UniProt Q12866)
T1 sequence (Q12866 whole entry): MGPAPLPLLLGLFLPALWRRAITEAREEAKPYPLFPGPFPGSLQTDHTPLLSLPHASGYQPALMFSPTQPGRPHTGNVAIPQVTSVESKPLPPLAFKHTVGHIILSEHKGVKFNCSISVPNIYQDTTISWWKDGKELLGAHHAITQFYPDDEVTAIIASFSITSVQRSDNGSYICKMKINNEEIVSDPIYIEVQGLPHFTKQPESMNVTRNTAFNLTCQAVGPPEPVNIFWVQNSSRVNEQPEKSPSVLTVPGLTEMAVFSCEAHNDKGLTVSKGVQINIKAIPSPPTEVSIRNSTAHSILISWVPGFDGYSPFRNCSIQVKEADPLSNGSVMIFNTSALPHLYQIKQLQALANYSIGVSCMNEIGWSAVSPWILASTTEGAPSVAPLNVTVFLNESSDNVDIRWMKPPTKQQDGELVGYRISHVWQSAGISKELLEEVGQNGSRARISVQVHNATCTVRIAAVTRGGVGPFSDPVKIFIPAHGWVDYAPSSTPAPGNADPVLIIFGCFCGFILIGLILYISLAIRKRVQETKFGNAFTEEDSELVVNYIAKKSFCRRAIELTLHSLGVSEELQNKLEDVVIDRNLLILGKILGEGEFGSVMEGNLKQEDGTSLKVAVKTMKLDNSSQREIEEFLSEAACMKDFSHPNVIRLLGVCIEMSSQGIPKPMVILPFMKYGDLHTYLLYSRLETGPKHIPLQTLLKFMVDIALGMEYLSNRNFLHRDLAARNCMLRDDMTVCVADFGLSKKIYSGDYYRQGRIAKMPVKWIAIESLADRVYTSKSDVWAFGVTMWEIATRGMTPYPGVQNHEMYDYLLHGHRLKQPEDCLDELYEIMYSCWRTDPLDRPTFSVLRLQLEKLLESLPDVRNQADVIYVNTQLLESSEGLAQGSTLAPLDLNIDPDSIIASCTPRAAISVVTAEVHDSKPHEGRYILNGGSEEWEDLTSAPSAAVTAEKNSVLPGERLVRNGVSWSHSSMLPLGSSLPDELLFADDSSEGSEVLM
Experimental: MER Kinase: The assay of small molecular compounds for inhibiting the activity of MER kinase is based on the LANCE TR-FRET technology of Perkin Elmer Inc., and the assay method is as follows:1. Dilution of compounds: a total of 11 concentrations were obtained using a 3-fold gradient dilution from the highest concentration of 2500 nM (the maximum final concentration of the drug used in this assay was 2500 nM, and the minimum final concentration was 0.042 nM).2. 2.5 μL of the gradient-diluted compounds were taken with a transfer pipette to a 384-well plate.3. Addition of enzyme: 5 μL of 2×MER kinase solution (with a concentration of 1 nM) was taken with a transfer pipette to the corresponding reaction well of the 384-well plate, mixed well and pre-reacted at room temperature for 5 minutes.4. 2.5 μL 4× ULight-labeled Ploy GT (with a concentration of 200 nM)/ATP (with a concentration of 20 μM) mixture was taken with a transfer pipette to the corresponding reaction well of the 384-well plate.5. Negative control: 2.5 μL/well 4× substrate/ATP mixture and 7.5 μL 1× Kinase Assay Buffer were added to the wells of the 384-well plate.Positive control: 2.5 μL/well 4× substrate/ATP mixture, 2.5 μL/well 1× Kinase Assay Buffer containing 4% DMSO, and 5 μL/well 2×MER kinase solution were added to the 384-well plate. The final concentration of DMSO in the reaction system was 1%.6. The mixture was mixed well and then centrifuged and reacted at room temperature in dark for 60 min.7. Termination of the enzymatic reaction: 5 μL of 4× stop solution was taken with a transfer pipette to the wells of the 384-well plate, mixed and then centrifuged, and reacted at room temperature for 5 min.8. Development of the reaction: 5 μL of 4× detection solution was taken with a transfer pipette to the wells of the 384-well plate for color development, and the mixture was mixed and then centrifuged and reacted at room temperature for 60 min.9. The 384-well plate was placed into the Envision plate reader and the signal was detected using the appropriate program.10. Analysis and processing of the raw data:The drug concentrations and the corresponding inhibition rates were input into GraphPad Prism5 for calculation, and the inhibition rate of the compounds were calculated as follows: inhibition rate (%)=(reading of positive well−reading of experimental well)/(reading of positive control well−reading of negative control well)×100%.

[3] = biological target: High affinity nerve growth factor receptor (Homo sapiens, UniProt P04629)
Chain of High affinity nerve growth factor receptor (P04629 whole entry): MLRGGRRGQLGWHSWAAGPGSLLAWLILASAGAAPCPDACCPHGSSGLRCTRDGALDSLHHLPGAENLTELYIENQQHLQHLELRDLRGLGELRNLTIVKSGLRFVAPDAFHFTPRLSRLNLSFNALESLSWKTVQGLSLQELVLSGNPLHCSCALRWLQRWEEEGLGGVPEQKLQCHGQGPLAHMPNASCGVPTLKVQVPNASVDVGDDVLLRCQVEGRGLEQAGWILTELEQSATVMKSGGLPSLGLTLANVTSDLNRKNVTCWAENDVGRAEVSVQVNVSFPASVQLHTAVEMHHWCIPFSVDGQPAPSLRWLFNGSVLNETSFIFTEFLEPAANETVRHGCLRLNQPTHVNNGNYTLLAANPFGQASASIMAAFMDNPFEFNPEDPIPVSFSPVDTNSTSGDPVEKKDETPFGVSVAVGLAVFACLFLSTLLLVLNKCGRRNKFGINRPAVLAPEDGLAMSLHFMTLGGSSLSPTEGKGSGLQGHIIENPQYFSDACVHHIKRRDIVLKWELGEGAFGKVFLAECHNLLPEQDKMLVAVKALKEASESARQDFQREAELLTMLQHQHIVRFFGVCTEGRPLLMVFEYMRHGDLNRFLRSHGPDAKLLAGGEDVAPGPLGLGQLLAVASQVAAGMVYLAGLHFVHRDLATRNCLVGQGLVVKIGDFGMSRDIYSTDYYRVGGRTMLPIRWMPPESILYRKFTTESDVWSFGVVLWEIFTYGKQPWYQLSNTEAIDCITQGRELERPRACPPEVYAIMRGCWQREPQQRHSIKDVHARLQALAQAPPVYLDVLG
Experimental: TRKA Kinase: The assay of small molecular compounds for inhibiting the activity of TRKA kinase is based on the LANCE TR-FRET technology of Perkin Elmer Inc., and the assay method is as follows:1. […] 2.5 μL of the gradient-diluted compounds were taken with a transfer pipette to a 384-well plate.3. Addition of enzyme: 5 μL of 2×TRKA kinase solution (with a concentration of 2 nM) was taken with a transfer pipette to the corresponding reaction well of the 384-well plate, mixed well and pre-reacted at room temperature for 5 minutes.4. 2.5 μL 4× Ultra ULight-labeled TK Peptide (with a concentration of 400 nM)/ATP (with a concentration of 40 μM) mixture was taken with a transfer pipette to the corresponding reaction well of the 384-well plate.5. Negative control: 2.5 μL/well 4× substrate/ATP mixture and 7.5 μL 1× Kinase Assay Buffer were added to the wells of the 384-well plate.Positive control: 2.5 μL/well 4× substrate/ATP mixture, 2.5 μL/well 1× Kinase Assay Buffer containing 4% DMSO, and 5 μL/well 2×TRKA kinase solution were added to the 384-well plate. The final concentration of DMSO in the reaction system was 1%.6. The mixture was mixed well and then centrifuged and reacted at room temperature in dark for 60 min.7. Termination of the enzymatic reaction: 5 μL of 4× stop solution was taken with a transfer pipette to the wells of the 384-well plate, mixed and then centrifuged, and reacted at room temperature for 5 min.8. Development of the reaction: 5 μL of 4× detection solution was taken with a transfer pipette to the wells of the 384-well plate for color development, and the mixture was mixed and then centrifuged and reacted at room temperature for 60 min.9. The 384-well plate was placed into the Envision plate reader and the signal was detected using the appropriate program.10.

[4] = biological target: Vascular endothelial growth factor receptor 2 (Homo sapiens, UniProt P35968)
Chain of Vascular endothelial growth factor receptor 2 (P35968 whole entry): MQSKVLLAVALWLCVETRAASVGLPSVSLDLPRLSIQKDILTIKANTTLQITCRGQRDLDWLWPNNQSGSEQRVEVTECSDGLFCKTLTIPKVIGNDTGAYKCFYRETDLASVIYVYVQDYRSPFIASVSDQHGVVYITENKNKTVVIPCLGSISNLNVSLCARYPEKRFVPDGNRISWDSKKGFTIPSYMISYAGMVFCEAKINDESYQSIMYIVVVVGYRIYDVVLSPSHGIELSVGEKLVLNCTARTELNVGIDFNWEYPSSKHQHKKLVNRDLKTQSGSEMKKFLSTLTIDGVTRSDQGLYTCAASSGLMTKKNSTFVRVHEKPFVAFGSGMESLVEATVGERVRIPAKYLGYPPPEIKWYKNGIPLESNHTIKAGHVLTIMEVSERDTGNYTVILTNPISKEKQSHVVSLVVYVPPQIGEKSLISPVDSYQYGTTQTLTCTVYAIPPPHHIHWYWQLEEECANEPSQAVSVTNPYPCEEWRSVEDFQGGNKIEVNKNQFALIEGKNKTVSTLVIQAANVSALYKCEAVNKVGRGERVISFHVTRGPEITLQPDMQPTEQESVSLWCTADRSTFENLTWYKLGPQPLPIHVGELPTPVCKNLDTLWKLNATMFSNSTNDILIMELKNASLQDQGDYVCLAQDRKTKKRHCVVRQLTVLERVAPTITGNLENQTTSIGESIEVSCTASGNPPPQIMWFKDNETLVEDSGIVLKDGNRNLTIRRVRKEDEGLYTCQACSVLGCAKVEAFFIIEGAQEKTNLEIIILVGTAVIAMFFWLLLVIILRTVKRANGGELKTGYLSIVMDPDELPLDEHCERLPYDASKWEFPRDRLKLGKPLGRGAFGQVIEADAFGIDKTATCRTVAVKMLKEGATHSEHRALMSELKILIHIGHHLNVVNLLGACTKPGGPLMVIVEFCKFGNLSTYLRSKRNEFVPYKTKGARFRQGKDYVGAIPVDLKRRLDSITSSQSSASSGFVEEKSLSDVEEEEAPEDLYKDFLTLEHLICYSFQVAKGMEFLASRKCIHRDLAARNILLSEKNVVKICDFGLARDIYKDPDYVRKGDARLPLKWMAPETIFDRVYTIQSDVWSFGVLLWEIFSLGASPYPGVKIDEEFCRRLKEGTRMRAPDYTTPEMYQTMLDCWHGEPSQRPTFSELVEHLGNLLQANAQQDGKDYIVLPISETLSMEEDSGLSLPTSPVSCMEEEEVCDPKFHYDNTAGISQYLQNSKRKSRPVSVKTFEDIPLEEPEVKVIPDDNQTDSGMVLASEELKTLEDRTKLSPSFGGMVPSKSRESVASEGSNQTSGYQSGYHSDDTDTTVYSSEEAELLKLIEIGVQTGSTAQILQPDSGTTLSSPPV
Experimental: VEGFR-2 Kinase: The assay is based on the LANCE TR-FRET technology of Perkin Elmer Inc., and the assay method is as follows:1. Dilution of compounds: a total of 11 concentrations were obtained using a 3-fold gradient dilution from the highest concentration of 2500 nM (the maximum final concentration of the drug used in this assay was 2500 nM, and the minimum final concentration was 0.042 nM).2. 2.5 μL of the gradient-diluted compounds were taken with a transfer pipette to a 384-well plate.3. Addition of enzyme: 5 μL of 2×VEGFR2 kinase solution (with a concentration of 0.5 nM) was taken with a transfer pipette to the corresponding reaction well of the 384-well plate, mixed well and pre-reacted at room temperature for 30 minutes.4. 2.5 μL 4× Ultra ULight™-JAK-1 (Tyr1023) Peptide (with a concentration of 200 nM)/ATP (with a concentration of 40 μM) mixture was taken with a transfer pipette to the corresponding reaction well of the 384-well plate.5. Negative control: 2.5 μL/well 4× substrate/ATP mixture and 7.5 μL 1× Kinase Assay Buffer were added to the wells of the 384-well plate.6. Positive control: 2.5 μL/well 4× substrate/ATP mixture, 2.5 μL/well 1× Kinase Assay Buffer containing 16% DMSO, and 5 μL/well 2×VEGFR-2 kinase solution were added to the 384-well plate. […] The 384-well plate was placed into the Envision plate reader and the signal was detected using the appropriate program.11. […]

Measured: IC50

Chain of Hepatocyte growth factor receptor (P08581 whole entry): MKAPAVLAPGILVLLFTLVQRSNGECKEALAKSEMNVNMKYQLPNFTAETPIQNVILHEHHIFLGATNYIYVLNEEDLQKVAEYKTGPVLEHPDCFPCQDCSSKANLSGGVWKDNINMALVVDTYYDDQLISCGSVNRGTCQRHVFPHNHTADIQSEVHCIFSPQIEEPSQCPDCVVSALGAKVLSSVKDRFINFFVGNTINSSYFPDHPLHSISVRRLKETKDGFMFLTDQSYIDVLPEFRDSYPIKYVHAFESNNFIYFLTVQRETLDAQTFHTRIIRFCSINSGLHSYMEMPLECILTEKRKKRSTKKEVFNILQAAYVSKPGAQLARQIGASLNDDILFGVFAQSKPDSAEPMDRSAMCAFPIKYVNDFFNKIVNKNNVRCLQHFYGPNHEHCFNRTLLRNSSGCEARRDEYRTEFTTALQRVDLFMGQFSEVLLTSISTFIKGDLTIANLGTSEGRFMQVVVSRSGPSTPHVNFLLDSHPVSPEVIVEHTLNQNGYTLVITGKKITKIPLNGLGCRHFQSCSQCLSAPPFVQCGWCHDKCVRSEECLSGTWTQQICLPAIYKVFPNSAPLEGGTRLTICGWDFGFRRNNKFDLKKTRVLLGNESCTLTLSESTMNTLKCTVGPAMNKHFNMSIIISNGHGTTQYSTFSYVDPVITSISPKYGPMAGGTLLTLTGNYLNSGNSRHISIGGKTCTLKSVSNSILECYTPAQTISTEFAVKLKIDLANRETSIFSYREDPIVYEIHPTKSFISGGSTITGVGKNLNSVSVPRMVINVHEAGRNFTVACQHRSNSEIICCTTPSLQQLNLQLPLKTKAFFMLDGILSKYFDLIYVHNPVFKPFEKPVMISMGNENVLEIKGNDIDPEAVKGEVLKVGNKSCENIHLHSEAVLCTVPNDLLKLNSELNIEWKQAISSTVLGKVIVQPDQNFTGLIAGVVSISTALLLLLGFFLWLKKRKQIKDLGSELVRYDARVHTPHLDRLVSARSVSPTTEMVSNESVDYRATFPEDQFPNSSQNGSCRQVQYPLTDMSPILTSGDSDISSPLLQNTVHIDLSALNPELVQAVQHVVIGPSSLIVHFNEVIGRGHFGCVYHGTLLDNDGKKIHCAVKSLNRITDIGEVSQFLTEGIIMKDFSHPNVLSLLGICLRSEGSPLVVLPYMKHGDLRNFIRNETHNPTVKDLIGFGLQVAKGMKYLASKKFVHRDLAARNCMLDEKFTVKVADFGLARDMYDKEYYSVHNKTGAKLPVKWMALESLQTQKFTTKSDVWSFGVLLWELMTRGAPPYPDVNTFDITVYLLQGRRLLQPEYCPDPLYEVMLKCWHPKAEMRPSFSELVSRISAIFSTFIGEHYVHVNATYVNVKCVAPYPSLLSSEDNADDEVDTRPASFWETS

CN(C)CCCOc1cc2nccc(Oc3ccc(NC(=O)c4cn(C)c(=O)n(-c5ccc(F)cc5)c4=O)cc3F)c2c2c1OCCO2 [US12202835, Example 86]
< 50 nM: [1] | [2] | [3]

CC(C)n1cc(C(=O)Nc2ccc(Oc3ccnc4cc(OCCCCCCN(C)C)c5c(c34)OCCO5)c(F)c2)c(=O)n(-c2ccc(F)cc2)c1=O [US12202835, Example 85]
< 50 nM: [2] | [3]

CCOc1ccn(-c2ccc(F)cc2)c(=O)c1C(=O)Nc1ccc(Oc2ccnc3cc(OCCCCCCN(C)C)c4c(c23)OCCO4)c(F)c1 [US12202835, Example 60]
< 50 nM: all assays above

CCOc1ccn(-c2ccc(F)cc2)c(=O)c1C(=O)Nc1ccc(Oc2ccnc3cc(OCCCN(C)C)c4c(c23)OCCO4)c(F)c1 [US12202835, Example 61]
< 50 nM: all assays above
